Here are results for 24 molecules from US7045528B2, “Benzofused heterozryl amide derivatives of thienopyridines useful as therapeutic agents, pharmaceutical compositions including the same, and methods for their use” (Agouron Pharmaceuticals, Inc., priority 2002, dated 2006).

Structures are written as SMILES. Where two headings read alike, the source gives them in different places.

For one series, the target named is T1, PDGFRβ (Homo sapiens, UniProt P09619).
T1 construct: expressed in transfected cells; host or cells: porcine aorta endothelial (PAE)-PDGFRβ cells
T1 sequence (P09619 33-1106): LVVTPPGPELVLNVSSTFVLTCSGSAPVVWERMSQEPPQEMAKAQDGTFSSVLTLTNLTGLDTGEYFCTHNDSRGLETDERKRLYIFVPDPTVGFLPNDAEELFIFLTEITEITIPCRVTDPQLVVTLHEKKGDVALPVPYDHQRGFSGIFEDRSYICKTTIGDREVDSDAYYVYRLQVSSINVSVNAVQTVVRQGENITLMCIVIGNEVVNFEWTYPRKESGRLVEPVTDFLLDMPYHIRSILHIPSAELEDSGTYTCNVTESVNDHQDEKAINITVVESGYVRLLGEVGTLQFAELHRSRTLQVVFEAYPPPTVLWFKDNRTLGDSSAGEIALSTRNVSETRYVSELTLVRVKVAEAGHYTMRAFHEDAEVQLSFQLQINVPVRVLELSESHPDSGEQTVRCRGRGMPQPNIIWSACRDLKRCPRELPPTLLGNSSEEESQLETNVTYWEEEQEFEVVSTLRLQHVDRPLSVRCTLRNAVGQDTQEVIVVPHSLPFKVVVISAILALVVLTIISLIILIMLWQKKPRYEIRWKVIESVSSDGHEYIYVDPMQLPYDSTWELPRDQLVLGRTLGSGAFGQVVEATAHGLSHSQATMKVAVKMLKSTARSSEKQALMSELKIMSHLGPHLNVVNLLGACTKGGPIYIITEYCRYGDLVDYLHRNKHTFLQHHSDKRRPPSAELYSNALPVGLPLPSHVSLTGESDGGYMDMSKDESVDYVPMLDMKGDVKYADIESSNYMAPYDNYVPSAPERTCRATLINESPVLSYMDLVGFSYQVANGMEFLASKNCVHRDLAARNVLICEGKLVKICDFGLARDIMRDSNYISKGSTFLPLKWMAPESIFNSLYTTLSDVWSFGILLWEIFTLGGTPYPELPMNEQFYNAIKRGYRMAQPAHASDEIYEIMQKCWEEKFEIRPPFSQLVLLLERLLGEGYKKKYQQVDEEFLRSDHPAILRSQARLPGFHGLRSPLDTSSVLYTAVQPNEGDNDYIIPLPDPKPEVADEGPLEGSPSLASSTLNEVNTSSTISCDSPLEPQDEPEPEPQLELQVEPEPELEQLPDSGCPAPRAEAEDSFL
In words: PAE-PDGFRβ phosphorylation in PAE-PDGFRB cells assay. It counts as cell-based. As to conditions: library amides from Example 101 (R101), crude mixtures in DMSO; read-out: PAE PDGFR autophos IC50. The method, boiled down:
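Inhibition of PDGF-BB-induced (1 μg/mL, 8 min, with 2 mM vanadate) PDGFRβ autophosphorylation in porcine aortic endothelial cells expressing the human receptor. Cells were starved 16 h and pretreated with compound 1 h at 37 °C. Lysates were captured with anti-PDGFRβ and probed with HRP-PY20 at 450 nm; four-parameter IC50.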

Series [1] concerns the target T2, unphosphorylated VEGF-R2Δ50 (FLVK) (Homo sapiens, UniProt P35968, DEL940-989/E990V).
T2 construct: VEGF-R2Δ50 contains residues 806–939 and 990–1171; made in house; host or cells: baculovirus/insect cell system
In words: VEGF-R2 coupled spectrophotometric assay, unphosphorylated VEGF-R2Δ50 (FLVK). It counts as biochemical. Particulars: for inhibition at 0.1 µM: read-out: FLVK (% @ 100 nM); for inhibition at 0.05 µM: 50 nM compound, read-out: FLVK (% inh @ 50 nM); for inhibition at 0.05 µM / Ki: unphosphorylated VEGF-R2Δ50. The method, boiled down: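 Ki obtained by Morrison-equation fitting of activity at varied compound levels; reaction started with 5–40 nM enzyme. Non-autophosphorylated kinase construct (insect cell-expressed) with 3 mM ATP, 20 mM poly(E4Y1), 60 mM MgCl2 plus 2 mM MnCl2, pH 7.5 HEPES; NADH loss at 340 nm via PK/LDH coupling.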

For a further series, the target named is T3, FGF-R1 (Homo sapiens, UniProt P11362, C488A/C584S/L457V).
T3 construct: starting from the endogenous methionine residue 456 to glutamate 766; made in house; host or cells: baculovirus vector expression system
T3 sequence (P11362 456-766 L457V/C488A/C584S): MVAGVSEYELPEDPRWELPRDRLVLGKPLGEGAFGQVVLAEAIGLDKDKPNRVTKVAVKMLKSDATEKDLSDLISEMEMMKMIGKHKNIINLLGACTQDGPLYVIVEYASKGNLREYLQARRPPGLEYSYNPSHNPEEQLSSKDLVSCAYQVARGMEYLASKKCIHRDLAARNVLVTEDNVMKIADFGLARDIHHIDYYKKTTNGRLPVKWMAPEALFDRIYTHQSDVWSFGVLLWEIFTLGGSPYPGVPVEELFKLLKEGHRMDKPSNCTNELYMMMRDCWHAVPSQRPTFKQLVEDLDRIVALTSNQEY
Kind of series: FGF-R spectrophotometric assay. The series is classed as biochemical. Particulars: percent inhibition at 100 nM; library amides from Example 101 (R101), crude mixtures in DMSO. Here is the method:
FGF-R1 Construct for Assay:
The intracellular kinase domain of human FGF-R1 was expressed using the baculovirus vector expression system starting from the endogenous methionine residue 456 to glutamate 766, according to the residue numbering system of Mohammadi et al., Mol. Cell. Bio., 16, 977–989 (1996). In addition, the construct also has the following 3 amino acid substitutions: L457V, C488A, and C584S.
The spectrophotometric assay was carried out as described above for VEGF-R2, except for the following changes in concentration: FGF-R=50 nM, ATP=2 mM, and poly(E4Y1)=15 mM.

A further series in a line: Mouse PK assay. It counts as in vivo. Particulars: 50 mg/kg, B6 female mice, plasma; for AUC / Cmax: mouse, po. On the procedure: The pharmacokinetics (e.g., absorption and elimination) of drugs in mice were analyzed using the following experiment. Test compounds were formulated as a suspension in a 30:70 (PEG 400:acidified H2O) vehicle. This solution was administered orally (p.o.) and intraperitoneally (i.p.) at 50 mg/kg to two distinct groups (n=4) of B6 female mice. Blood samples were collected via an orbital bleed at time points: 0 hour (pre-dose), 0.5 hr, 1.0 hr, 2.0 hr, and 4.0 hr post dose. Plasma was obtained from each sample by centrifugation at 2500 rpm for 5 min. Test compound was extracted from the plasma by an organic protein precipitation method. For each time bleed, 50 μL of plasma was combined with 1.0 mL of acetonitrile, vortexed for 2 min. and then spun at 4000 rpm for 15 min. to precipitate the protein and extract out the test compound. Next, the acetonitrile supernatant (the extract containing test compound) was poured into new test tubes and evaporated on a hot plate (25° C.) under a steam of N2 gas. To each tube containing the dried test compound extract, 125 μL of mobile phase (60:40, 0.025 M NH4H2PO4+2.5 mL/L TEA:acetonitrile) was added. The test compound was resuspended in the mobile phase by vortexing and more protein was removed by centrifugation at 4000 rpm for 5 min. Each sample was poured into an HPLC vial for test compound analysis on an Hewlett Packard 1100 series HPLC with UV detection. From each sample, 95 μL was injected onto a Phenomenex-Prodigy reverse phase C-18, 150×3.2 mm column and eluted with a 45–50% acetonitrile gradient run over 10 min. Test-compound plasma concentrations (μg/mL) were determined by a comparison to standard curve (peak area vs. conc. μg/mL) using known concentrations of test compound extracted from plasma samples in the manner described above. Along with the standards and unknowns, three groups (n=4) of quality controls (0.25 μg/mL, 1.5 μg/mL, and 7.5 μg/mL) were run to insure the consistency of the analysis. […] The quantitated test samples were plotted for visual display using Kalidagraph software and their pharmacokinetic parameters were determined using WIN NONLIN software.

Series [2] concerns human umbilical vein endothelial cells (HUVEC). Kind of series: HUVEC+VEGF proliferation assay. It counts as cell-based. Particulars: Homo sapiens, HUVEC; VEGF 6 ng/mL, 72 h, MTT. Put shortly:
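Exponentially growing passage 3–4 HUVEC were starved 24 h in F12K + 1% FBS, given compound (0.1% final DMSO) 1 h before 6 ng/mL final VEGF, then cultured 72 h. Proliferation was read as MTT dye reduction (4 h exposure), absorbance at 595 nm.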

The test system of the next series is Huvec. In words: bFGF Huvec proliferation. It counts as cell-based, human. Particulars: Homo sapiens, HUVEC.
Setting [3] is: percent inhibition at 100 nM, library amides from Example 101 (R101), crude mixtures in DMSO.

T2 sequence (P35968 with tags, fused parts or gaps DEL940-989/E990V limits assumed): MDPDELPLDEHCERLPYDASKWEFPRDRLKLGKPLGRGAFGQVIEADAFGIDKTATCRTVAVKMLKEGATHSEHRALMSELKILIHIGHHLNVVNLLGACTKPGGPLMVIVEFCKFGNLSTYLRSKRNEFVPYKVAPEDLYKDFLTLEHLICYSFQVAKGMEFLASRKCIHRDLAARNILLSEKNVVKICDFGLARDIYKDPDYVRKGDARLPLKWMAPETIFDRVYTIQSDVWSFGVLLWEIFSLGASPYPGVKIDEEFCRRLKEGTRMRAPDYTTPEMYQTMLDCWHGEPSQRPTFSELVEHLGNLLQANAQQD

Regarding `Cc1oc2cc(Oc3ccnc4ccsc34)ccc2c1C(=O)Nc1nncs1`, the IC50 (usually the concentration that inhibits the measured activity by half) at PDGFRβ is more than 100 nM. The inhibition at 0.1 µM is 75% in series [1] (setting [3]) and 35% on FGF-R1.
On the same counts, the results for `Cc1oc2cc(Oc3ccnc4ccsc34)ccc2c1C(=O)Nc1nccs1` are more than 100 nM, 90% and 20%.
Consider `Cc1csc(NC(=O)c2c(C)oc3cc(Oc4ccnc5ccsc45)ccc23)n1`, for which, on PDGFRβ, the IC50 was more than 100 nM. In addition, the results for the inhibition at 0.1 µM (in series [1] (setting [3]); at FGF-R1) were 62% and 7%, respectively.
Take `Cc1oc2cc(Oc3ccnc4ccsc34)ccc2c1C(=O)Nc1ccc2cn[nH]c2c1`: on PDGFRβ, the IC50 worked out at 57 nM. Further, the inhibition at 0.1 µM was 87% in series [1] (setting [3]) and 0% on FGF-R1.
On the same counts, the results for `Cc1oc2cc(Oc3ccnc4ccsc34)ccc2c1C(=O)Nc1ccc2[nH]ncc2c1` are approximately 100 nM, 96% and 0%.
The like results for `Cc1oc2cc(Oc3ccnc4ccsc34)ccc2c1C(=O)NCCc1cccc(C(F)(F)F)c1` were, in that order, more than 100 nM, 97% and 0%.
Turning to `Cc1cc(C)c(O)c(NC(=O)c2c(C)oc3cc(Oc4ccnc5ccsc45)ccc23)c1`, the IC50 at PDGFRβ is approximately 100 nM. Also, the inhibition at 0.1 µM in series [1] came out at 87%; at FGF-R1 it was 13%.
With `Cc1oc2cc(Oc3ccnc4ccsc34)ccc2c1C(=O)Nc1nnc(C2CC2)s1`, the IC50 on PDGFRβ was more than 100 nM. In addition, the inhibition at 0.1 µM worked out at 100% in series [1] (setting [3]) and 4% at FGF-R1.
Turning to `Cc1oc2cc(Oc3ccnc4ccsc34)ccc2c1C(=O)Nc1cnc2ccccc2c1`, on PDGFRβ, the IC50 was more than 100 nM. The inhibition at 0.1 µM in series [1] (setting [3]) amounted to 85%; at FGF-R1, 7%.
On the same counts, the results for `Cc1oc2cc(Oc3ccnc4ccsc34)ccc2c1C(=O)Nc1ccc2ncsc2c1` are more than 100 nM, 96% and 0%.
In the case of `Cc1oc2cc(Oc3ccnc4ccsc34)ccc2c1C(=O)Nc1cc(C(C)(C)C)[nH]n1`, the IC50 at PDGFRβ is more than 100 nM. The inhibition at 0.1 µM in series [1] (setting [3]) was found to be 100%; at FGF-R1 it was 56%.
The like results for `Cc1oc2cc(Oc3ccnc4ccsc34)ccc2c1C(=O)Nc1cc(C2CC2)nn1C` were, in that order, more than 100 nM, 56% and 3%.
On the same counts, the results for `Cc1oc2cc(Oc3ccnc4ccsc34)ccc2c1C(=O)Nc1cccc(-c2cc[nH]n2)c1` are more than 100 nM, 94% and 0%.
The like results for `COc1ccc(NC(=O)c2c(C)oc3cc(Oc4ccnc5ccsc45)ccc23)c(OC)n1` were, in that order, more than 100 nM, 92% and 1%.
For `Cc1oc2cc(Oc3ccnc4ccsc34)ccc2c1C(=O)NCC(c1ccc[nH]1)C(F)(F)F` (centres unmarked), the IC50 at PDGFRβ was more than 100 nM. For the same molecule, the inhibition at 0.1 µM in series [1] (setting [3]) was 85%; at FGF-R1, 3%.
On the same counts, the results for `Cc1ccc(NC(=O)c2c(C)oc3cc(Oc4ccnc5ccsc45)ccc23)c(O)c1` are approximately 100 nM, 85% and 0%.
The like results for `Cc1oc2cc(Oc3ccnc4ccsc34)ccc2c1C(=O)Nc1n[nH]c2cccc(F)c12` were, in that order, more than 100 nM, 61% and 0%.
The like results for `Cc1oc2cc(Oc3ccnc4ccsc34)ccc2c1C(=O)Nc1cc(-c2ccco2)n[nH]1` were, in that order, more than 100 nM, 101% and 1%.
Take `CNC(=O)c1c(C)sc2cc(Oc3ccnc4cc(C(=O)N5C[C@H](OC)[C@H](OC)C5)sc34)ccc12` [Example 5, 6-(2-[meso-3,4-dimethoxypyrrolidine-1-carbonyl]thieno[3,2-b]pyridin-7-yloxy)-2-methylbenzo[b]thiophene-3-carboxylic acid methylamide]: in the series “Mouse PK assay”, the “mouse Cmin, po” value is 256 ng/mL; the AUC (commonly the area under the concentration-time curve, a measure of exposure) amounted to 12300 ng·h/mL; the peak level (Cmax) was 6740 ng/mL. The IC50 in series [2] worked out at 1.55 nM. This molecule displayed an IC50 with Huvec of 235 nM. In series [1], the inhibition at 0.05 µM amounted to 73% and the Ki (as a rule, a measure of affinity in units of concentration, obtained from inhibition or displacement) came to 1.91 nM.
Turning to `Cc1sc2cc(Oc3ccnc4cc(C(=O)N5CCC[C@H]5CO)sc34)ccc2c1C(=O)NC1CC1` [Example 8, 6-(2-[(S)-2-(hydroxymethyl)pyrrolidine-1-carbonyl]thieno[3,2-b]pyridin-7-yloxy)-2-methylbenzo[b]thiophene-3-carboxylic acid cyclopropylamide], in the series “Mouse PK assay”, the “mouse Cmin, po” value worked out at 105 ng/mL; the AUC is 2350 ng·h/mL; the Cmax (in general, the maximum level reached in the sampled fluid or tissue) came out at 666 ng/mL. Also, the IC50 in series [2] was found to be 1.37 nM. In the series on Huvec, this molecule came in with an IC50 of 504 nM. For the same molecule, in series [1], the inhibition at 0.05 µM was 94% and the affinity corresponds to a Ki of 0.403 nM.
Turning to `Cc1oc2cc(Oc3ccnc4ccsc34)ccc2c1C(=O)NCCCN1CCOCC1` [drawing 308], at PDGFRβ, the IC50 amounted to 53 nM. For the same molecule, the inhibition at 0.1 µM was determined as 103% in series [1] (setting [3]) and 2% on FGF-R1.
The like results for `Cc1cc(NC(=O)c2c(C)oc3cc(Oc4ccnc5ccsc45)ccc23)n[nH]1` [drawing 331] were, in that order, 46 nM, 100% and 4%.
The like results for `Cc1oc2cc(Oc3ccnc4ccsc34)ccc2c1C(=O)NCCOC(C)C` [drawing 361] were, in that order, 61 nM, 94% and 0%.
The like results for `Cc1oc2cc(Oc3ccnc4ccsc34)ccc2c1C(=O)Nc1ccc(N2CCOCC2)nc1` [drawing 369] were, in that order, 57 nM, 101% and 0%.
